Paper PMC6429356, “Development of Anthraquinone Analogues as Phosphoglycerate Mutase 1 Inhibitors” (Molecules, 2019)

Columns and labels:
PGAM1 = target: T1, PGAM1 (Homo sapiens, UniProt P18669); assay: PGAM1 enzymatic assay (enolase-pyruvate kinase-LDH coupled, OD 340 nm); type: biochemical; conditions: for inhibition at 10 µM: 10 μM compound, mean ± s.d. (n = 2); for IC50: optimized enzymatic assay, mean ± s.d. (n = 3)
T1 construct: His6 (C); made in house
Method: (§1) Firstly, 1 μL inhibitor in dimethyl sulfoxide (DMSO) incubated with 49 μL 4.6 nM recombinant PGAM1, then 50 μL enzyme mix containing 3 units/mL enolase (Sigma-Aldrich, Saint Louis, MO, USA), 3 units/mL recombinant pyruvate kinase M2 (Sigma-Aldrich), 0.6 units/mL recombinant lactatdehydrogenase (LDH, Sigma-Aldrich), 100 mM Tris-HCl, 100 mM KCl, 5 mM MgCl2, 1 mM adenosine diphosphate (ADP), 0.2 mM the reduced form of nicotinamide adenine dinucleotide (NADH) and 4 mM 3PG was added. PGAM1 activity was measured as the decrease in OD at 340 nm. In addition, we performed a counter screening in which 4mM 2PG was added to 50 μL reaction mix containing the indicated inhibitor, 3 units/mL enolase (Sigma-Aldrich), 3 units/mL recombinant pyruvate kinase M2 (Sigma-Aldrich), 0.6 units/mL recombinant LDH (Sigma-Aldrich), 100 mM Tris-HCl, 100 mM KCl, 5 mM MgCl2, 1 mM ADP and 0.2 mM NADH. The other three enzyme activity was measured as the decrease in OD at 340 nm.

H1299 cells = assay: Cell viability assay (MTT, 72 h), H1299; type: cell-based; conditions: Homo sapiens, NCI-H1299, proliferation, mean ± s.d. (n = 3)
Method: (§2) The H1299 cell line was obtained from Guangzhou Jenniobio Biotechnology Co., Ltd. (Guangzhou, China), PC9 and A549 cells were gifted from Deng Jiong’s lab in the School of Medicine, Shanghai Jiao Tong University, Shanghai, China). H1299, PC9 cells were cultured in RPMI-1640 medium and A549 cells were cultured in F-12K medium containing 10% fetal bovine serum (FBS), 100 units/mL of Penicillin and 100 μg/mL Streptomycin. In cell viability assays, 2000 H1299 cells, A549 cells or 1000 PC9 cells per well were seeded in 96-well plate. After attachment for 24 h, the cells were treated with indicated inhibitor for 72 h. After incubation with 0.5 mg/mL methylthiazolyldiphenyl-tetrazolium bromide (MTT) for 4 h, cell viability was measured as the OD at 570 nm.

[1] = system: enolase-pyruvate kinase-LDH; assay: Counter screening: control linked enzyme assay with 2PG; type: biochemical; conditions: 0.5 μM compound, pyruvate kinase M2, LDH without PGAM1, mean ± s.d. (n = 2)
Method: as §1

PC9 cells = assay: Cell viability assay (MTT, 72 h), PC9; type: cell-based; conditions: Homo sapiens, PC-9, proliferation, mean ± s.d. (n = 3)
Method: as §2

A549 cells = assay: Cell viability assay (MTT, 72 h), A549; type: cell-based; conditions: Homo sapiens, proliferation, mean ± s.d. (n = 3)
Method: as §2

T1 sequence (P18669 whole entry): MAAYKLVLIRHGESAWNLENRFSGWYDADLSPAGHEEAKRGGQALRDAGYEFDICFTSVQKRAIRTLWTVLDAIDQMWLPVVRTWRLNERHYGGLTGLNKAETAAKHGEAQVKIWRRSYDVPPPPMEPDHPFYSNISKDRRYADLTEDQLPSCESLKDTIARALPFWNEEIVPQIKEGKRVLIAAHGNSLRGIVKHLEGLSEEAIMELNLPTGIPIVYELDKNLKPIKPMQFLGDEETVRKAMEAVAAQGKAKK

| SMILES | inhibition at 10 µM (PGAM1) | IC50 (H1299 cells) | IC50 (PGAM1) | Inhibition in the Control Linked Enzyme Assay (0.5 μM) [1] | IC50 (PC9 cells) | IC50 (A549 cells) |
| --- | --- | --- | --- | --- | --- | --- |
| CCOC(=O)COc1ccc2c(c1OCC(=O)OCC)C(=O)c1ccccc1C2=O [Compound 6a, diethyl 2,2′-((9,10-dioxo-9,10-dihydroanthracene-1,2-diyl)bis(oxy)) diacetate] | -0.6 ± 1% | – | – | – | – | – |
| O=C(O)COc1ccc2c(c1OCC(=O)O)C(=O)c1ccccc1C2=O [Compound 6b, 2,2′-((9,10-dioxo-9,10-dihydroanthracene-1,2-diyl)bis(oxy)) diacetic acid] | 14.3 ± 5.9% | – | – | – | – | – |
| CCOC(=O)COc1ccc2c(c1O)C(=O)c1ccccc1C2=O [Compound 6c] | 0% | – | – | – | – | – |
| O=C(O)COc1ccc2c(c1O)C(=O)c1ccccc1C2=O [Compound 6d] | 5.5 ± 0.03% | – | – | – | – | – |
| CN(C)C(=O)COc1ccc2c(c1O)C(=O)c1ccccc1C2=O [Compound 6e, 2-((1-hydroxy-9,10-dioxo-9,10-dihydroanthracen-2-yl)oxy)-N,N-dimethylacetamide] | 20.2 ± 2.2% | – | – | – | – | – |
| O=C1c2ccccc2C(=O)c2c1cc(NS(=O)(=O)c1ccc(C(F)(F)F)cc1)c(O)c2O [Compound 9a, N-(3,4-Dihydroxy-9,10-dioxo-9,10-dihydroanthracen-2-yl)-4-(trifluoromethyl) benzenesulfonamide] | – | 20.7 ± 0.6 µM | 540 ± 40 nM | 8.0 ± 5.0% | – | – |
| O=C1c2ccccc2C(=O)c2c1cc(NS(=O)(=O)c1ccc([N+](=O)[O-])cc1)c(O)c2O [Compound 9b, N-(3,4-Dihydroxy-9,10-dioxo-9,10-dihydroanthracen-2-yl)-4-nitrobenzenesulfonamide] | – | 25.8 ± 2.2 µM | 470 ± 80 nM | −2.9 ± 0.3% | – | – |
| O=C1c2ccccc2C(=O)c2c1cc(NS(=O)(=O)c1ccccc1OC(F)(F)F)c(O)c2O [Compound 9d, N-(3,4-Dihydroxy-9,10-dioxo-9,10-dihydroanthracen-2-yl)-2-(trifluoromethoxy) benzenesulfonamide] | – | 13.9 ± 3.6 µM | 2200 ± 500 nM | – | 44.2 ± 1.5 µM | 17 ± 4.9 µM |
| N#Cc1ccc(S(=O)(=O)Nc2cc3c(c(O)c2O)C(=O)c2ccccc2C3=O)cc1 [Compound 9e, 4-Cyano-N-(3,4-dihydroxy-9,10-dioxo-9,10-dihydroanthracen-2-yl) benzenesulfonamide] | – | 26.3 ± 4.5 µM | 610 ± 120 nM | 6.7 ± 0.2% | – | – |
| O=C1c2ccccc2C(=O)c2c1cc(NS(=O)(=O)c1ccc(F)cc1)c(O)c2O [Compound 9f, N-(3,4-Dihydroxy-9,10-dioxo-9,10-dihydroanthracen-2-yl)-4-fluorobenzenesulfonamide] | – | 24.2 ± 2.6 µM | 540 ± 70 nM | 5.7 ± 0.7% | – | – |
| O=C1c2ccccc2C(=O)c2c1cc(NS(=O)(=O)c1ccccc1F)c(O)c2O [Compound 9g, N-(3,4-Dihydroxy-9,10-dioxo-9,10-dihydroanthracen-2-yl)-2-fluorobenzenesulfonamide] | – | 31.3 ± 1.9 µM | 790 ± 40 nM | 10.2 ± 3.0% | – | – |
| O=C1c2ccccc2C(=O)c2c1cc(NS(=O)(=O)c1cccc(F)c1F)c(O)c2O [Compound 9h, N-(3,4-Dihydroxy-9,10-dioxo-9,10-dihydroanthracen-2-yl)-2,3-difluorobenzenesulfonamide] | – | 45.7 ± 2.7 µM | 890 ± 130 nM | 0.06 ± 0.4% | – | – |
| O=C1c2ccccc2C(=O)c2c1cc(NS(=O)(=O)c1ccc(Cl)cc1Cl)c(O)c2O [Compound 9j, 2,4-Dichloro-N-(3,4-dihydroxy-9,10-dioxo-9,10-dihydroanthracen-2-yl) benzenesulfonamide] | – | 23.7 ± 1.1 µM | 280 ± 70 nM | −2.0 ± 5.1% | – | – |
| O=C1c2ccccc2C(=O)c2c1cc(NS(=O)(=O)c1c(Cl)cccc1Cl)c(O)c2O [Compound 9k, 2,6-Dichloro-N-(3,4-dihydroxy-9,10-dioxo-9,10-dihydroanthracen-2-yl) benzenesulfonamide] | – | 34.6 ± 2.4 µM | 890 ± 330 nM | 0.5 ± 3.2% | – | – |
| O=C1c2ccccc2C(=O)c2c1cc(NS(=O)(=O)c1ccc(Br)cc1)c(O)c2O [Compound 9m, 4-Bromo-N-(3,4-dihydroxy-9,10-dioxo-9,10-dihydroanthracen-2-yl) benzenesulfonamide] | – | 28.1 ± 1.9 µM | 260 ± 20 nM | −0.1 ± 2.5% | – | – |
| O=C1c2ccccc2C(=O)c2c1cc(NS(=O)(=O)c1ccccc1Br)c(O)c2O [Compound 9n, 2-Bromo-N-(3,4-dihydroxy-9,10-dioxo-9,10-dihydroanthracen-2-yl) benzenesulfonamide] | – | 50 ± 0.6 µM | 200 ± 40 nM | 6.1 ± 0.8% | – | – |
| O=C1c2ccccc2C(=O)c2c1cc(NS(=O)(=O)c1cccc(Br)c1)c(O)c2O [Compound 9o, 3-Bromo-N-(3,4-dihydroxy-9,10-dioxo-9,10-dihydroanthracen-2-yl) benzenesulfonamide] | – | 24.5 ± 0.2 µM | 350 ± 5 nM | 7.7 ± 0.2% | – | – |
| O=C1c2ccccc2C(=O)c2c1cc(NS(=O)(=O)c1ccccc1I)c(O)c2O [Compound 9q, 2-Iodo-N-(3,4-dihydroxy-9,10-dioxo-9,10-dihydroanthracen-2-yl) benzenesulfonamide] | – | 26.4 ± 3.8 µM | 260 ± 30 nM | −2.3 ± 2.4% | – | – |
| CCOC(=O)COc1cc(NS(=O)(=O)c2ccc(Cl)cc2)c2c(c1O)C(=O)c1ccccc1C2=O [Compound 12, ethyl 2-((4-((4-chlorophenyl)sulfonamido)-1-hydroxy-9,10-dioxo-9,10-dihydroanthracen-2-yl)oxy) acetate] | 10% | – | – | – | – | – |
| O=C(O)COc1cc(NS(=O)(=O)c2ccc(Cl)cc2)c2c(c1O)C(=O)c1ccccc1C2=O [Compound 13, 2-((4-((4-chlorophenyl)sulfonamido)-1-hydroxy-9,10-dioxo-9,10-dihydroanthracen-2-yl)oxy) acetic acid] | 34% | – | – | – | – | – |

Continued, values first:

| inhibition at 10 µM (PGAM1) | IC50 (H1299 cells) | IC50 (PGAM1) | Inhibition in the Control Linked Enzyme Assay (0.5 μM) [1] | IC50 (PC9 cells) | IC50 (A549 cells) | SMILES |
| --- | --- | --- | --- | --- | --- | --- |
| – | – | > 10000 nM | – | – | – | CCOC(=O)COc1c(NS(=O)(=O)c2ccc(Cl)cc2)cc2c(c1O)C(=O)c1ccccc1C2=O [Compound 14a, ethyl 2-((3-((4-chlorophenyl)sulfonamido)-1-hydroxy-9,10-dioxo-9,10-dihydroanthracen-2-yl)oxy) acetate] |
| – | – | > 10000 nM | – | – | – | O=C(O)COc1c(NS(=O)(=O)c2ccc(Cl)cc2)cc2c(c1O)C(=O)c1ccccc1C2=O [Compound 14b, 2-((3-((4-chlorophenyl)sulfonamido)-1-hydroxy-9,10-dioxo-9,10-dihydroanthracen-2-yl)oxy) acetic acid] |
| – | 26.9 ± 2.1 µM | 2920 ± 110 nM | – | – | – | COc1c(NS(=O)(=O)c2ccc(Cl)cc2)cc2c(c1O)C(=O)c1ccccc1C2=O [Compound 14c, 4-chloro-N-(4-hydroxy-3-methoxy-9,10-dioxo-9,10-dihydroanthracen-2-yl) benzene-sulfonamide] |
| – | 10.3 ± 0.8 µM | 7010 ± 920 nM | – | 49.1 ± 1.9 µM | 9.9 ± 0.2 µM | COc1c(N(C)S(=O)(=O)c2ccc(Cl)cc2)cc2c(c1O)C(=O)c1ccccc1C2=O [Compound 14d, 4-chloro-N-(4-hydroxy-3-methoxy-9,10-dioxo-9,10-dihydroanthracen-2-yl)-N-methyl-benzenesulfonamide] |
| – | – | > 10000 nM | – | – | – | O=C1c2ccccc2C(=O)c2c1cc1c(c2O)OCCN1S(=O)(=O)c1ccc(Cl)cc1 [Compound 14e, 4-((4-chlorophenyl)sulfonyl)-12-hydroxy-3,4-dihydro-2H-anthra[2,3-b][1,4]-oxazine-6,11-dione] |
| – | > 100 µM | 2000 ± 200 nM | – | – | – | NNC(=O)COc1c(NS(=O)(=O)c2ccc(Cl)cc2)cc2c(c1O)C(=O)c1ccccc1C2=O [Compound 14f, 4-chloro-N-(3-(2-hydrazinyl-2-oxoethoxy)-4-hydroxy-9,10-dioxo-9,10-dihydroanthracen-2-yl) benzenesulfonamide] |
| – | 28.5 ± 0.6 µM | > 10000 nM | – | – | – | CS(=O)(=O)Oc1c(NS(=O)(=O)c2ccc(Cl)cc2)cc2c(c1O)C(=O)c1ccccc1C2=O [Compound 14g, 3-((4-chlorophenyl)sulfonamido)-1-hydroxy-9,10-dioxo-9,10-dihydroanthracen-2-yl methanesulfonate] |
